These results are taken from patent US7045320B2, “Methods for producing L-amino acids” (priority 2001, dated 2006).

What all share (assay type): biochemical
Assay [1] concerns the target T1, TrpE5 mutant anthranilate synthase (Escherichia coli, UniProt P00895, P21S).
T1 construct: endogenous in cells; host or cells: 5-methyltryptophan-resistant mutant of E. coli K12 YMC9 (gene later cloned as pE5)
The assay is described as follows: Ki value of anthranilate synthase (AS) to L-tryptophan, TrpE5. As to the method: (§1) Following the culture for 24–48 hours at 37° C., 5-methyltryptophan resistant clones were seeded on the aforementioned agar medium. In order to examine properties of the obtained mutant strain, Ki value of AS to L-tryptophan was measured (Bauerle R. et al., Methods in Enzymology, 142, pp.366–386, 1987). As a result, the mutant strains could be classified into two classes. The class 1 mutant strains had feedback resistant anthranilate synthase. […] The AS genes of these mutant strains were cloned and their nucleotide sequences were determined. Chromosomal DNA of each mutant strain was isolated and digested with restriction enzymes NheI and ClaI to isolate a fragment of about 5 kb, and this fragment was ligated with the NheI/ClaI fragment (4158 bp) of pBR322.
(§2) E. coli KB 862 (trpE) (DSM7196) was transformed with the ligation reaction product. A clone that could grow on a minimal medium not containing L-tryptophan was selected. All the plasmids complementing the trpE mutation contained the NheI/ClaI fragment of 5 kb. Further, this 5 kb NheI/ClaI fragment contained trpE, trpD, a sequence about 0.8 kb upstream from trpE, and a sequence about 1 kb downstream from trpD. Differences in amino acid sequences of mutant AS encoded by plasmids (pE0, pE5, pE6, pE8) contained in the mutant strains and their Ki values are shown in Table 1.

Assay [2] addresses T2, TrpE0 mutant anthranilate synthase (Escherichia coli, UniProt P00895, K50E).
T2 construct: endogenous in cells; host or cells: 5-methyltryptophan-resistant mutant of E. coli K12 YMC9 (gene later cloned as pE0)
Description: Ki value of anthranilate synthase (AS) to L-tryptophan, TrpE0. As to the method: as §1, §2

Assay [3] deals with T3, TrpE6 mutant anthranilate synthase (Escherichia coli, UniProt P00895, K50E/S40F).
T3 construct: endogenous in cells; host or cells: 5-methyltryptophan-resistant mutant of E. coli K12 YMC9 (gene later cloned as pE6)
Description: Ki value of anthranilate synthase (AS) to L-tryptophan, TrpE6. As to the method:
as §1, §2

Assay [4] concerns the target T4, Wild type trpE anthranilate synthase (Escherichia coli, UniProt P00895).
T4 construct: endogenous in cells
The assay is described as follows: Ki value of anthranilate synthase (AS) to L-tryptophan, wild type. As for the experimental part: as §1, §2

T1 sequence (P00904 2-531): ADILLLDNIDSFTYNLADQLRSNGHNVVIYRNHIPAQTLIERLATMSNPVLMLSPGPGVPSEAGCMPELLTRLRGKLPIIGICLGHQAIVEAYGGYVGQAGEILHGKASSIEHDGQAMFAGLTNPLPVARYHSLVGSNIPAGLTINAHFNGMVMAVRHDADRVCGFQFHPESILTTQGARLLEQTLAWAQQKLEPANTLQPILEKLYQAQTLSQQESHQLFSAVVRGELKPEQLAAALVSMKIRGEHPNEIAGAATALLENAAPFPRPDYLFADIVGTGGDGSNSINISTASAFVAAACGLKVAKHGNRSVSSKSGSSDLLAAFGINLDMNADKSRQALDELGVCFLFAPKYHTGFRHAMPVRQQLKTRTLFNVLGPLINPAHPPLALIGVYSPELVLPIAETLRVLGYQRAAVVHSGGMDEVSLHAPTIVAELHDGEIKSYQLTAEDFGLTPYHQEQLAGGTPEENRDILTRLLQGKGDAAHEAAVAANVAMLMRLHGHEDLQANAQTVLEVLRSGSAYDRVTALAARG
T1 sequence (P00895 whole entry P21S): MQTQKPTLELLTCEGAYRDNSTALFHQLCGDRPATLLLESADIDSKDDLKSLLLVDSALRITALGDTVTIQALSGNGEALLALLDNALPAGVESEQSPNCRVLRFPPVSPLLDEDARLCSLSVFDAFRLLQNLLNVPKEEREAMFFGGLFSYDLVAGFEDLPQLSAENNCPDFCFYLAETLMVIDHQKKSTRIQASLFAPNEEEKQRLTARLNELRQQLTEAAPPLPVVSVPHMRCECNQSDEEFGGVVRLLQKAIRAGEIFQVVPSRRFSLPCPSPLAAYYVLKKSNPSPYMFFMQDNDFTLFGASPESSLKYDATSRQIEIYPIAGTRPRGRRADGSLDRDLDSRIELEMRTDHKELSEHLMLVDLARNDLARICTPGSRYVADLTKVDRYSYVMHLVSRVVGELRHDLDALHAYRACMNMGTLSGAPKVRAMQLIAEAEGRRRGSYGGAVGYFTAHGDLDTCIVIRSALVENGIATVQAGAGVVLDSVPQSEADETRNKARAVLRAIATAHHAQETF
T4 sequence (P00904 2-531): as the sequence (P00904 2-531) above
T4 sequence (P00895 whole entry): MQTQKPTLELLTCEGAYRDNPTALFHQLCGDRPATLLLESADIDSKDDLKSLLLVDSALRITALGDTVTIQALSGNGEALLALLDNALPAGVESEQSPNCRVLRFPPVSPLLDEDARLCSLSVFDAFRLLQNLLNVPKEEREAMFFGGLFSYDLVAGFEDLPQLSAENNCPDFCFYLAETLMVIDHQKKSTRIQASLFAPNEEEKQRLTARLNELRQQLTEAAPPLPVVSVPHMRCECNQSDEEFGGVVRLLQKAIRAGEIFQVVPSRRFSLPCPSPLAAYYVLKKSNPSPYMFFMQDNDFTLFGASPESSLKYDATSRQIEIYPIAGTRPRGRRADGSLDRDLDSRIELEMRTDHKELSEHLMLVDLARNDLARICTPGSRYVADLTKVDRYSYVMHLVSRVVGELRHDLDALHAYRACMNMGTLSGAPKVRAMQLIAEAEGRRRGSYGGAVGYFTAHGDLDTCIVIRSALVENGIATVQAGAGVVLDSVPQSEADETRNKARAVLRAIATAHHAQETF
T2 sequence (P00904 2-531): as the sequence (P00904 2-531) above
T2 sequence (P00895 whole entry K50E): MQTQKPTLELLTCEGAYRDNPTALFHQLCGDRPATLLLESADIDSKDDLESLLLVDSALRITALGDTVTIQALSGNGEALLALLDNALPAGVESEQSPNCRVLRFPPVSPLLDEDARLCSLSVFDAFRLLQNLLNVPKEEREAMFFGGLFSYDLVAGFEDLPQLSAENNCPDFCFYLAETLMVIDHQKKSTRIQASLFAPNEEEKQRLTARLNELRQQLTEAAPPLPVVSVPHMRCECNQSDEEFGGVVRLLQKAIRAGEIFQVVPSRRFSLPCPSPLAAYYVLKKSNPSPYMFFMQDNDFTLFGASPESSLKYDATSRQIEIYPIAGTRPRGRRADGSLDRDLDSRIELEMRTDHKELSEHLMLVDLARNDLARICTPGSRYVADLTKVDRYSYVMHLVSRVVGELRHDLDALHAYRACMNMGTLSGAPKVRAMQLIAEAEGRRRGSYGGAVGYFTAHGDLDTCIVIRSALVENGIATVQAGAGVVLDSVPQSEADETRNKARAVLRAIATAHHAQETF
T3 sequence (P00895 whole entry S40F/K50E): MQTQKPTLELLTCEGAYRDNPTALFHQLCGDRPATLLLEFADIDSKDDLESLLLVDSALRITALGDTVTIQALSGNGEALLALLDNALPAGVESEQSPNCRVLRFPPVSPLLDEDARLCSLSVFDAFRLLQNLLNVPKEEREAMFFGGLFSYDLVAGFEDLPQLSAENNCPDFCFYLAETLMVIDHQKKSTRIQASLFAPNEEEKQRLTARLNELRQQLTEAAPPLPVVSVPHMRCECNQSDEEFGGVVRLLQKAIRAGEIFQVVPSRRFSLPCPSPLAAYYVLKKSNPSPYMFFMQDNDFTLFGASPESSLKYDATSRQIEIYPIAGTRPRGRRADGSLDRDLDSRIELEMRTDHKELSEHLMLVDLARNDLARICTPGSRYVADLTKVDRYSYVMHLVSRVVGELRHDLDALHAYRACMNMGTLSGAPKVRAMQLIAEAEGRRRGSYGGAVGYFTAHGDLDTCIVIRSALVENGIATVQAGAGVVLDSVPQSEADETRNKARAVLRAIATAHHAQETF
T3 sequence (P00904 2-531, further chain): as the sequence (P00904 2-531) above

Broadly, the Ki is the equilibrium dissociation constant of an inhibitor or competing ligand from its target. Turning to `N[C@@H](Cc1c[nH]c2ccccc12)C(=O)O` [L-tryptophan], the inhibition constant (Ki) was 3000 µM in assay [1], 100 µM in assay [2], more than 15000 µM in assay [3] and 10 µM in assay [4].
